Experimental data: US20230348483A1, “PREPARATION METHOD FOR (S)-2-AMINO-3-(4-(2,3-DIMETHYLPYRIDIN-4-YL)PHENYL)METHYL PROPIONATE DIACID SALT” (Hangzhou Zhongmei Huadong Pharmaceutical Co., Ltd., priority 2020, published 2023)

Tests used:
[1] = Stability test of salt forms at temperature 40° C. and humidity 75% (HPLC chemical purity, physical properties); assay type: physicochemical; conditions: for Appearance / Hygroscopicity / Purity (%): 40° C./75% placement for 1 day; for Purity (%) / Initial purity: chemical purity by HPLC; for Initial purity: before placement
Protocol: Compare the properties of the desired salts of compound V, includes but not limits to as herein oxalate or phosphate, to hydrochloride. Conduct the stability test under the condition of temperature 40° C. and humidity 75%, measure the chemical purity by HPLC and observe the physical properties.

[2] = Hygroscopicity and deterioration of compound IV as found by the researchers; assay type: physicochemical; conditions: solid, storage and transport

Row | Appearance [1] | Hygroscopicity [1] | Purity (%) [1] | Initial purity [1] | Deterioration (storage stability) [2] | Hygroscopicity [2] | Structure (SMILES)
1 | Yellow solid | Strong | 87.5% | 95.1 | easily to be deteriorated | highly hygroscopic | COC(=O)[C@@H](N)Cc1ccc(-c2ccnc(C)c2C)cc1.Cl.Cl [Hydrochloride, methyl (S)-2-amino-3-[4-(2,3-dimethylpyridin-4-yl)-phenyl]-propionate dihydrochloride]
2 | White to light | Slight | 96.1% | 98.5 | – | – | COC(=O)[C@@H](N)Cc1ccc(-c2ccnc(C)c2C)cc1.O=C(O)C(=O)O.O=C(O)C(=O)O [Phosphate, methyl (S)-2-amino-3-[4-(2,3-dimethylpyridin-4-yl)-phenyl]-propionate diacid salt]
3 | White powder | Almost none | 99.0% | 99.1 | – | – | COC(=O)[C@@H](N)Cc1ccc(-c2ccnc(C)c2C)cc1.O=C(O)C(=O)O.O=C(O)C(=O)O [Oxalate, methyl (S)-2-amino-3-[4-(2,3-dimethylpyridin-4-yl)-phenyl]-propionate diacid salt]
